The values below come from US7371555B2, “Polypeptides having α-H-α-amino acid amide racemase activity and nucleic acids encoding the same” (DSM IP Assets B.V., priority 2002, dated 2008).

Assay [1] relates to CFE from E. coli DH10B/pOa(1)PLV49B10 combined with the L-aminopeptidase from Pseudomonas putida ATCC 12633. The experiment in a line: Racemase activity test with DL-2-amino-5-[1,3]dioxolan-2-yl-pentanoic acid amide, CFE combined with L-aminopeptidase (Example 12). It counts as biochemical, Ochrobactrum anthropi IA; Pseudomonas putida ATCC 12633. On the procedure: (§1) A reaction mixture of 10 ml (total volume including enzyme preparations) was prepared containing 50 mM HEPES-NaOH, pH 8.0, 20 μM pyridoxal-5-phosphate, 0.4 mg/ml BSA, 1 mM dithiothreitol, and 75 mM of DL-2-aminobutyric acid amide. Reaction was started by the addition of 0.4 ml of the thawed CFE of E. coli DH10B/pOa(1)PLV49B10 and 0.17 ml of a solution containing L-aminopeptidase from P. putida ATCC 12633. The reaction mixture was incubated at 37° C. for 18 h. At certain time intervals samples of 1 ml were taken and transferred to vials containing 1 ml of MeOH to stop the reaction. Analysis of these samples to determine the concentrations L- and D-2-aminobutyric acid and L- and D-2-aminobutyric acid amide was done by HPLC according to the protocol of Example 11.
In a very similar set-up, the combined activity of the α-H-α-amino acid amide racemase from O. anthropi IA and the L-aminopeptidase from P. putida ATCC 12633 was determined towards the more complex substrate DL-2-amino-5-[1,3]dioxolan-2-yl-pentanoic acid amide. The molecular structure of this amide can be found in the substrate table in Example 8. In this experiment 1 ml of the thawed CFE from E. coli DH10B/pOa(1)PLV49B10 was used together with 1 ml of a solution containing L-aminopeptidase from P. putida ATCC 12633. Reaction proceeded for 120 hours. Analysis of these samples to determine the concentrations L- and D-2-amino-5-[1,3]dioxolan-2-yl-pentanoic acid and L- and D-2-amino-5-[1,3]dioxolan-2-yl-pentanoic acid amide was done by HPLC according to the following protocol. • column: Crownether Cr(−) (150 mm×4.0 mm ID) • eluent: Perchloric acid in water, pH=1.0 • flow: 1.2 ml/min. • column temp.: 18° C. • inj. volume: 20 μl • detection: fluorescence detection after post-column reaction with o-phthalaldehyde and 2-mercaptoethanol in 0.4 M borate buffer. (wavelength ex=338 nm and em>420 nm)

In assay [2] the test system is CFE from E. coli DH10B/pOa(1)PLV49B10 containing the α-H-α-amino acid amide racemase from O. anthropi IA. The experiment in a line: Racemase activity test with DL-2-aminobutyric acid amide and CFE from E. coli DH10B/pOa(1)PLV49B10 (Example 10). It counts as biochemical, Ochrobactrum anthropi IA. The settings on record: Strain A; for Conversion: conversion to the L-acid. On the procedure: Also in this case, E. coli TOP10/pBAD/Myc-HisC was treated in exactly the same way to serve as negative control.
To determine the activity of the CFE from E. coli DH10B/pOa(1)PLV49B10 and E. coli TOP10/pBAD/Myc-HisC, reaction mixtures of 10 ml each were prepared containing 50 mM HEPES-NaOH, pH 8.0, 20 μM pyridoxal-5-phosphate, 0.4 mg/ml BSA, 1 mM dithiothreitol, and 75 mM of DL-2-aminobutyric acid amide. Reactions were started by the addition of 1 ml of the thawed CFE of E. coli DH10B/pOa(1)PLV49B10 or E. coli TOP10/pBAD/Myc-HisC (blank) and were incubated at 37° C. for 21.5 h. At regular time intervals samples of 1 ml were taken and transferred to vials containing 1 ml of MeOH to stop the reaction. Analysis of these samples to determine the concentrations L- and D-2-aminobutyric acid and L- and D-2-aminobutyric acid amide was done by HPLC according to the following protocol. • column: Sumichiral OA5000 from Sumika (150×4.6 mm I.D., 5μ)+guard column • eluent: 4 mM CuSO4 in water • flow: 1 ml/min. • column temp.: 10° C. • inj. volume: 6 μl • detection: fluorescence detection after post-column reaction with o-phthalaldehyde and 2-mercaptoethanol in 0.4 M borate buffer with addition of EDTA (wavelength ex=338 nm and em>420 nm)

The test system of assay [3] is CFE from E. coli DH10B/pOa(1)PLV49B10 combined with the L-aminopeptidase from Pseudomonas putida ATCC 12633. The assay can be described thus: Racemase activity test with DL-2-aminobutyric acid amide, CFE combined with L-aminopeptidase (Example 11). The format is biochemical, Ochrobactrum anthropi IA; Pseudomonas putida ATCC 12633. On the procedure:
In this experiment, the E. coli DH10B/pOa(1)PLV49B10 CFE from Example 11 was used. It was combined with a preparation containing the L-aminopeptidase from P. putida ATCC 12633. This is the same L-enantioselective enzyme as was used as L-aminopeptidase help solution in the screening of the O. anthropi IA and A. nicotianae NCIMB 41126 gene libraries (Examples 3 and 3A).
as §1

For assay [4], the system named is lyophilized O. anthropi IA cells. The assay can be described thus: α-H-α-amino acid amide racemase activity of lyophilized O. anthropi IA cells. It counts as biochemical, Ochrobactrum anthropi IA. The settings on record: control experiment. As for the experimental part: O. anthropi IA cells were cultivated in Medium A containing DL-α-amino-ε-caprolactam (2 g/l) as sole nitrogen source. After incubation at 28° C. and 200 rpm for three days (OD620 nm=4.7), cells were harvested by centrifugation, washed in 20 mM HEPES-NaOH buffer of pH 7.7 and lyophilized.
The assay mixture consisted of 10 mM HEPES-NaOH buffer (pH 7.7) containing toluene (2,5 v/v %), pyridoxal-5-phosphate (20 μM), D- or L-leucine amide (2.5 m %) and in some cases EDTA (20 mM). Per assay 150 mg of lyophilized cells were used. Chemical blanks (with the assay mixture without the O. anthropi IA cells) were used as a negative control. All reaction mixtures (including the blanks) were incubated for approximately 72 hours at 40° C. before the reaction was stopped by the addition of 9 volumes of 1 M H3PO4. Finally, the reaction mixtures were analyzed by HPLC to determine the concentrations of D- and L-leucine amide and of D- and L-leucine. o-Phthaldehyde in combination with D-3-mercapto-2-methylpropionic acid was used in this HPLC method as a chiral reagent for the enantioseparation of these amino compounds (Duchateau, et al., J. Chromatogr. (1992) 623:237-245).
In a number of reactions EDTA was added to inhibit L- and/or D-specific amidase(s) present in the O. anthropi IA cells.
Without EDTA, amidases convert the substrate and/or product α-H-α-amino acid amides into α-H-α-amino acids thereby preventing direct detection of the other α-H-α-amino acid amide enantiomer as racemization product. […] Formation of L-leucine from D-leucine amide could not be detected in the chemical blank.

Regarding `NC(=O)C(N)CCCC1OCCO1` (racemic) [DL-2-amino-5-[1,3]dioxolan-2-yl-pentanoic acid amide], in assay [1] (incubation time 0 h), the Conversion stood at 5.6%, the D-Abu turned out to be 0.0 mM, the D-Abu amide turned out to be 36.6 mM and the L-Abu amounted to 4.3 mM. For the same compound, the L-Abu amide in assay [1] (incubation time 0 h) amounted to 36.5 mM. For the same compound, in assay [1] (incubation time 3.6 h), the Conversion is 49.5%, the D-Abu amounted to 0.0 mM, the D-Abu amide was 35.7 mM and the L-Abu worked out at 37.6 mM. Also, in assay [1] (incubation time 3.6 h), the L-Abu amide came to 2.7 mM. In assay [1] (incubation time 22.1 h), the Conversion is on record as 56.6%, the D-Abu came to 0.1 mM, the D-Abu amide is reported as 29.9 mM and the L-Abu turned out to be 40.3 mM. Moreover, the L-Abu amide in assay [1] (incubation time 22.1 h) turned out to be 1.0 mM. Moreover, in assay [1] (incubation time 53.2 h), the Conversion is recorded as 61.1%, the D-Abu was found to be 0.1 mM, the D-Abu amide is 27.4 mM and the L-Abu was 43.5 mM. In addition, the L-Abu amide in assay [1] (incubation time 53.2 h) amounted to 0.1 mM. Moreover, in assay [1] (incubation time 120.2 h), the D-Abu was found to be 0.4 mM, the D-Abu amide stood at 23.7 mM, the L-Abu is 46.0 mM and the L-Abu amide was determined as 0.1 mM.

In the case of `CCC(N)C(N)=O` (racemic) [DL-2-aminobutyric acid (Abu) amide, DL-2-aminobutyric acid amide], the D-Abu is recorded as 0.0 mM in assay [2] (incubation time 0 h); 0.0 mM in assay [2] (incubation time 0.75 h); 0.0 mM in assay [2] (incubation time 2 h); 0.1 mM in assay [2] (incubation time 4.65 h); 0.5 mM in assay [2] (incubation time 8.25 h); 1.4 mM in assay [2] (incubation time 21.5 h). The D-Abu is on record as 0.0 mM in assay [3] (incubation time 0 h); 0.0 mM in assay [3] (incubation time 0.5 h); 0.1 mM in assay [3] (incubation time 1.0 h); 0.0 mM in assay [3] (incubation time 1.5 h); 0.0 mM in assay [3] (incubation time 2.0 h); 1.6 mM in assay [3] (incubation time 18 h). For the same compound, the D-Abu amide is listed as 42.3 mM in assay [2] (incubation time 0 h); 39.6 mM in assay [2] (incubation time 0.75 h); 34.7 mM in assay [2] (incubation time 2 h); 20.8 mM in assay [2] (incubation time 4.65 h); 12.4 mM in assay [2] (incubation time 8.25 h); 6.7 mM in assay [2] (incubation time 21.5 h). In addition, the D-Abu amide worked out at 36.2 mM in assay [3] (incubation time 0 h); 34.6 mM in assay [3] (incubation time 0.5 h); 36.4 mM in assay [3] (incubation time 1.0 h); 33.0 mM in assay [3] (incubation time 1.5 h); 30.4 mM in assay [3] (incubation time 2.0 h); 0.4 mM in assay [3] (incubation time 18 h). Also, the L-Abu in assay [2] (incubation time 0 h) was 1.4 mM; in assay [2] (incubation time 0.75 h), 12.3 mM; in assay [2] (incubation time 2 h), 29.1 mM; in assay [2] (incubation time 4.65 h) it was 52.3 mM; in assay [2] (incubation time 8.25 h), 64.9 mM; in assay [2] (incubation time 21.5 h), 71.7 mM. Also, the L-Abu in assay [3] (incubation time 0 h) is recorded as 0.5 mM; in assay [3] (incubation time 0.5 h) it was 11.7 mM; in assay [3] (incubation time 1.0 h) it was 32.2 mM; in assay [3] (incubation time 1.5 h), 38.5 mM; in assay [3] (incubation time 2.0 h), 41.9 mM; in assay [3] (incubation time 18 h), 70.8 mM. Besides, the L-Abu amide in assay [2] (incubation time 0 h) is 40.5 mM; in assay [2] (incubation time 0.75 h) it was 29.3 mM; in assay [2] (incubation time 2 h), 17.8 mM; in assay [2] (incubation time 4.65 h), 11.5 mM; in assay [2] (incubation time 8.25 h) it was 8.6 mM; in assay [2] (incubation time 21.5 h), 5.8 mM. Further, the L-Abu amide is listed as 34.1 mM in assay [3] (incubation time 0 h); 22.2 mM in assay [3] (incubation time 0.5 h); 7.3 mM in assay [3] (incubation time 1.0 h); 2.7 mM in assay [3] (incubation time 1.5 h); 1.7 mM in assay [3] (incubation time 2.0 h); 0.0 mM in assay [3] (incubation time 18 h). Further, the Conversion in assay [2] (incubation time 0 h) was determined as 1.6%; in assay [2] (incubation time 0.75 h), 15.2%; in assay [2] (incubation time 2 h), 35.7%; in assay [2] (incubation time 4.65 h) it was 61.8%; in assay [2] (incubation time 8.25 h), 75.1%; in assay [2] (incubation time 21.5 h), 83.9%. Besides, the Conversion in assay [3] (incubation time 0 h) is given as 0.7%; in assay [3] (incubation time 0.5 h), 17.1%; in assay [3] (incubation time 1.0 h), 42.4%; in assay [3] (incubation time 1.5 h), 51.9%; in assay [3] (incubation time 2.0 h), 56.7%; in assay [3] (incubation time 18 h), 97.3%.

In turn, `CC[C@@H](N)C(N)=O` [D-aminobutyric acid amide] returned a Conversion in assay [2] (incubation time 21.5 h) of 85.4%.

`CC(C)C[C@H](N)C(=O)O` [leucine]: the racemization of leucine entry in assay [4] is reported as “did not racemize”.
